Source: article PMC5557986 (Scientific Reports, 2017)

Key:
[1] = test system: Streptococcus 6646K NA (StrepNA); assay type: biochemical
[2] = target: A/RI/5+/1957(H2N2) NA (N2) (Influenza A virus, UniProt Q194T1); experiment: biochemical; assay type: biochemical, influenza A/RI/5+/1957(H2N2)
[3] = target: Clostridium perfringens NanJ NA (CpNA) (Clostridium perfringens, UniProt A0A0H2YT71); assay type: biochemical
N2 = conditions: cited from earlier work
influenza NA = conditions: cited from earlier work

Chain of Clostridium perfringens NanJ NA (CpNA) (A0A0H2YT71 27-1173 limits assumed): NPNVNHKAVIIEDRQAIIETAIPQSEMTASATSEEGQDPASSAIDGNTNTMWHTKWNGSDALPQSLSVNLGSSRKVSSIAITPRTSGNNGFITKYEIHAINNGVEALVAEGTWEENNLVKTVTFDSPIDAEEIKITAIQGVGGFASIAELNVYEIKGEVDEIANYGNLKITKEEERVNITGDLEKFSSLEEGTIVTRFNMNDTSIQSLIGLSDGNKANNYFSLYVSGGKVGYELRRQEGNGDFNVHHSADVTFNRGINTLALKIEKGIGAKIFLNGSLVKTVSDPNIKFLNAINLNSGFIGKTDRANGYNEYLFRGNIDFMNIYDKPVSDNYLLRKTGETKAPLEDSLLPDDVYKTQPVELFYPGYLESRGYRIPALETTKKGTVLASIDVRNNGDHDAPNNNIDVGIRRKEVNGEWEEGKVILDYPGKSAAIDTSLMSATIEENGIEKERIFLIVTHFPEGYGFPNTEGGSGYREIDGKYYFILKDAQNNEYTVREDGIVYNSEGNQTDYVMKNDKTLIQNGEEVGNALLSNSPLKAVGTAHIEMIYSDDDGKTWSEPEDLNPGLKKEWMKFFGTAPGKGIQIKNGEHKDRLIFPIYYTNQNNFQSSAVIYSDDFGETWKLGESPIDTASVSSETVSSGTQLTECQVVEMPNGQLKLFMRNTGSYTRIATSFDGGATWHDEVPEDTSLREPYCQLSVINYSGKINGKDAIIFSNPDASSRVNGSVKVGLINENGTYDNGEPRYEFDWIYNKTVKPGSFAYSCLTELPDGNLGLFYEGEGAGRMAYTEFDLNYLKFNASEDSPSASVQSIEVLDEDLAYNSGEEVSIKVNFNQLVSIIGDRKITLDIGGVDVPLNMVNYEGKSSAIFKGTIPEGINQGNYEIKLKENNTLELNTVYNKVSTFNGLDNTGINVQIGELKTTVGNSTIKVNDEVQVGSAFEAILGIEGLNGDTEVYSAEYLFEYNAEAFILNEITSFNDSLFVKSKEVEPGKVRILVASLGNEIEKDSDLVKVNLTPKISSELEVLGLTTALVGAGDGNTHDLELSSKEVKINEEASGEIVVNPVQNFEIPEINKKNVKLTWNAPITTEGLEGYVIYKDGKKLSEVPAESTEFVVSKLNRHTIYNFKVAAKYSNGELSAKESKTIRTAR

Molecule	IC50 [2]	Ki [2]	inhibition of influenza NA (influenza NA)	other results
CC(=O)N[C@H]1[C@H]([C@H](O)[C@H](O)CO)O[C@H](S(=O)(=O)O)C[C@@H]1O [7a, 4-Acetamido-1-sulfo-1,2,4-trideoxy-D-glycero-D-galacto-octopyranose]	8.86 µM	2.47 µM		IC50 [1]: 3.74 µM; potency for inhibition of influenza N2 relative to eqPO3H [2]: 40 fold; potency for CpNA inhibition relative to eqPO3H [3]: 8.5 fold; IC50 ([3]; read-out: CpNA IC50): 37.5 µM
CC(=O)N[C@H]1[C@H]([C@H](O)[C@H](O)CO)O[C@@H](S(=O)(=O)O)C[C@@H]1O [7b, 4-Acetamido-1-sulfo-1,2,4-trideoxy-D-glycero-D-galacto-octopyranose]	120 µM	33.5 µM		
CC(=O)N[C@@H]1C=C[C@H](S(=O)(=O)O)O[C@H]1[C@H](O)[C@H](O)CO [8b, 4-Acetamido-1-sufo-2,3-didehydro-1,2,3,4-tetradeoxy-D-glycero-D-galacto-octopyranose]	316 µM	88.1 µM		
CC(=O)N[C@H]1[C@H]([C@H](O)[C@H](O)CO)OC(C(=O)O)=C[C@@H]1O [Neu4Ac2en, 2,3-dehydro-2-deoxy-N-acetylneuraminic acid]				IC50 (N2): 19 µM
[H]/N=C(\N)N[C@H]1C=C(C(=O)O)O[C@@H]([C@H](OC)[C@H](O)CO)[C@@H]1NC(C)=O [laninamivir]			low nanomolar level	
CCOC(=O)C1=C[C@@H](OC(CC)CC)[C@H](NC(C)=O)[C@@H](N)C1 [oseltamivir]			low nanomolar level	
CC(=O)N[C@H]1[C@H]([C@H](O)[C@H](O)CO)OC(C(=O)O)=C[C@@H]1N=C(N)N [zanamivir]			low nanomolar level	
peramivir			low nanomolar level	
